# Test results from US20220175768A1, “FGFR TYROSINE KINASE INHIBITORS FOR THE TREATMENT OF UROTHELIAL CARCINOMA” (Janssen Pharmaceutica NV, priority 2019, published 2022).
# Conditions: 8 mg continuous, selected regimen 3 (n = 99)
smiles,measurement,value
"COc1cc(OC)cc(N(CCNC(C)C)c2ccc3ncc(-c4cnn(C)c4)nc3c2)c1 [erdafitinib, N-(3,5-dimethoxy-phenyl)-N′-(1-methylethyl)-N-[3-(1-methyl-1H-pyrazol-4-yl)quinoxalin-6-yl]ethane-1,2-diamine]","Patients with Alanine aminotransferase increased, Grade 1",13 (13) no. (%)
same,"Patients with Alanine aminotransferase increased, Grade 2",2 (2) no. (%)
same,"Patients with Alanine aminotransferase increased, Grade ≥3",2 (2) no. (%)
same,"Patients with Alopecia, Any grade",29 (29) no. (%)
same,"Patients with Alopecia, Grade 1",23 (23) no. (%)
same,"Patients with Alopecia, Grade 2",6 (6) no. (%)
same,"Patients with Alopecia, Grade ≥3",0 no. (%)
same,"Patients with Anemia, Any grade",20 (20) no. (%)
same,"Patients with Anemia, Grade 1",9 (9) no. (%)
same,"Patients with Anemia, Grade 2",7 (7) no. (%)
same,"Patients with Anemia, Grade ≥3",4 (4) no. (%)
same,"Patients with Arthralgia, Any grade",8 (8) no. (%)
same,"Patients with Arthralgia, Grade 1",5 (5) no. (%)
same,"Patients with Arthralgia, Grade 2",3 (3) no. (%)
same,"Patients with Arthralgia, Grade ≥3",0 no. (%)
same,"Patients with Aspartate aminotransferase increased, Any grade",10 (10) no. (%)
same,"Patients with Aspartate aminotransferase increased, Grade 1",8 (8) no. (%)
same,"Patients with Aspartate aminotransferase increased, Grade 2",2 (2) no. (%)
same,"Patients with Aspartate aminotransferase increased, Grade ≥3",0 no. (%)
same,"Patients with Asthenia, Any grade",20 (20) no. (%)
same,"Patients with Asthenia, Grade 1",2 (2) no. (%)
same,"Patients with Asthenia, Grade 2",11 (11) no. (%)
same,"Patients with Asthenia, Grade ≥3",7 (7) no. (%)
same,"Patients with Back pain, Any grade",5 (5) no. (%)
same,"Patients with Back pain, Grade 1",4 (4) no. (%)
same,"Patients with Back pain, Grade 2",1 (1) no. (%)
same,"Patients with Back pain, Grade ≥3",0 no. (%)
same,"Patients with Blood creatinine increased, Any grade",10 (10) no. (%)
same,"Patients with Blood creatinine increased, Grade 1",5 (5) no. (%)
same,"Patients with Blood creatinine increased, Grade 2",5 (5) no. (%)
same,"Patients with Blood creatinine increased, Grade ≥3",0 no. (%)
same,"Patients with Conjunctivitis, Any grade",13 (13) no. (%)
same,"Patients with Conjunctivitis, Grade 1",6 (6) no. (%)
same,"Patients with Conjunctivitis, Grade 2",7 (7) no. (%)
same,"Patients with Conjunctivitis, Grade ≥3",0 no. (%)
same,"Patients with Constipation, Any grade",28 (28) no. (%)
same,"Patients with Constipation, Grade 1",19 (19) no. (%)
same,"Patients with Constipation, Grade 2",8 (8) no. (%)
same,"Patients with Constipation, Grade ≥3",1 (1) no. (%)
same,"Patients with Decreased appetite, Any grade",38 (38) no. (%)
same,"Patients with Decreased appetite, Grade 1",18 (18) no. (%)
same,"Patients with Decreased appetite, Grade 2",20 (20) no. (%)
same,"Patients with Decreased appetite, Grade ≥3",0 no. (%)
same,"Patients with Diarrhea, Any grade",50 (51) no. (%)
same,"Patients with Diarrhea, Grade 1",31 (31) no. (%)
same,"Patients with Diarrhea, Grade 2",15 (15) no. (%)
same,"Patients with Diarrhea, Grade ≥3",4 (4) no. (%)
same,"Patients with Dry eye, Any grade",19 (19) no. (%)
same,"Patients with Dry eye, Grade 1",14 (14) no. (%)
same,"Patients with Dry eye, Grade 2",4 (4) no. (%)
same,"Patients with Dry eye, Grade ≥3",1 (1) no. (%)
same,"Patients with Dry mouth, Any grade",45 (46) no. (%)
same,"Patients with Dry mouth, Grade 1",34 (34) no. (%)
same,"Patients with Dry mouth, Grade 2",11 (11) no. (%)
same,"Patients with Dry mouth, Grade ≥3",0 no. (%)
same,"Patients with Dry skin, Any grade",32 (32) no. (%)
same,"Patients with Dry skin, Grade 1",24 (24) no. (%)
same,"Patients with Dry skin, Grade 2",8 (8) no. (%)
same,"Patients with Dry skin, Grade ≥3",0 no. (%)
same,"Patients with Dysgeusia, Any grade",37 (37) no. (%)
same,"Patients with Dysgeusia, Grade 1",23 (23) no. (%)
same,"Patients with Dysgeusia, Grade 2",13 (13) no. (%)
same,"Patients with Dysgeusia, Grade ≥3",1 (1) no. (%)
same,"Patients with Dyspepsia, Any grade",11 (11) no. (%)
same,"Patients with Dyspepsia, Grade 1",10 (10) no. (%)
same,"Patients with Dyspepsia, Grade 2",1 (1) no. (%)
same,"Patients with Dyspepsia, Grade ≥3",0 no. (%)
same,"Patients with Dyspnea, Any grade",8 (8) no. (%)
same,"Patients with Dyspnea, Grade 1",4 (4) no. (%)
same,"Patients with Dyspnea, Grade 2",2 (2) no. (%)
same,"Patients with Dyspnea, Grade ≥3",2 (2) no. (%)
same,"Patients with Fatigue, Any grade",32 (32) no. (%)
same,"Patients with Fatigue, Grade 1",12 (12) no. (%)
same,"Patients with Fatigue, Grade 2",18 (18) no. (%)
same,"Patients with Fatigue, Grade ≥3",2 (2) no. (%)
same,"Patients with Hand-foot syndrome, Any grade",23 (23) no. (%)
same,"Patients with Hand-foot syndrome, Grade 1",6 (6) no. (%)
same,"Patients with Hand-foot syndrome, Grade 2",12 (12) no. (%)
same,"Patients with Hand-foot syndrome, Grade ≥3",5 (5) no. (%)
same,"Patients with Hematuria, Any grade",10 (10) no. (%)
same,"Patients with Hematuria, Grade 1",7 (7) no. (%)
same,"Patients with Hematuria, Grade 2",1 (1) no. (%)
same,"Patients with Hematuria, Grade ≥3",2 (2) no. (%)
same,"Patients with Hyperphosphatemia, Any grade",76 (77) no. (%)
same,"Patients with Hyperphosphatemia, Grade 1",53 (54) no. (%)
same,"Patients with Hyperphosphatemia, Grade 2",21 (21) no. (%)
